# Marks after values point to notes of the source that are not given here.
# Legend:
# [1] = system: high-fat diet induced ApoE-/-mice atherosclerosis model (aortic atherosclerotic plaque); experiment: Treatment of atherosclerosis: aortic plaque area in high-fat diet induced ApoE-/- mice, samples given for 4 weeks after 17 weeks of modeling; type: in vivo
# Excerpt: (§1) Wild type C57 mice were used as a normal control group, rosuvastatin was used as a positive drug, and the efficacy (i.e., treating effect) of the composition samples in resisting atherosclerosis was investigated in a high-fat diet induced ApoE-/-mice atherosclerosis model. An atherosclerosis model was established after 17 weeks of modeling, and a control group was fed with a common feed for 17 weeks. The sample administration group was continuously administered with the test samples for 4 weeks after 17 weeks of modeling, and thereafter the formation of aortic atherosclerotic plaque in the mice was observed, and the plaque area was measured after dissection to calculate the plaque percentage.
# (§2) Wild type C57 mice were used as a normal control group, rosuvastatin and atorvastatin were used as positive drugs, and the efficacy (i.e., treating effect) of the composition mixed samples in resisting atherosclerosis was investigated in a high-fat diet induced ApoE-/-mice atherosclerosis model. An atherosclerosis model was established after 17 weeks of modeling, and a control group was fed with a common feed for 17 weeks. The sample administration group was continuously administered with the test samples for 4 weeks after 17 weeks of modeling, and thereafter the formation of aortic atherosclerotic plaque in the mice was observed, and the plaque area was measured after dissection to calculate the plaque percentage.
# as §2, with “aspirin, clopidogrel, colchicine” for “rosuvastatin”, “probucol” for “atorvastatin”
# as §1, with “the” for “the composition”
# as §1, with “mice were dissected,” for “plaque area was measured after dissection”, “area (percentage).” for “percentage.”
# [2] = system: high-fat diet induced ApoE-/-mice atherosclerosis model (aortic atherosclerotic plaque); experiment: Prevention of atherosclerosis: aortic plaque area in high-fat diet induced ApoE-/- mice, samples given during 12 weeks of modeling; type: in vivo; conditions: dose 1.67 mg/kg
# Excerpt: An atherosclerosis model (namely, model group) was established after 12 weeks of modeling, and a control group (namely normal group) was fed with a common feed for 12 weeks. […] An atherosclerosis model (namely, model group) was established after 12 weeks of modeling, and a control group (namely normal group) was fed with a common feed for 12 weeks.
# [3] = Table 6, treatment, drug alone 16.7 mg/kg
# [4] = Table 5, treatment, drug alone 1.67 mg/kg
# [5] = Table 5, treatment, drug alone 3.33 mg/kg
# [6] = Table 6, treatment, drug alone 12.5 mg/kg
# [7] = Table 6, treatment, drug alone 0.167 mg/kg
# [8] = Table 6, treatment, drug alone 83.5 mg/kg
# [9] = Table 2, treatment, 4 weeks, dose 1.67 mg/kg
# [10] = Table 4, treatment, 4 weeks, dose 1.67 mg/kg
# [11] = Table 5, treatment, drug alone 0.83 mg/kg
# [12] = Table 7, treatment, dose 1.67 mg/kg
# [13] = Table 8, treatment, dose 1.67 mg/kg
# [14] = Table 9, treatment, dose 1.67 mg/kg
structure (smiles),measurement,setting,value
CC(=O)Oc1ccccc1C(=O)O [aspirin],Inhibition rate compared to the model %,[1]; [3],33.74%
same,Plaque area %,[1]; [3],29.91%*
CC(C)c1c(C(=O)Nc2ccccc2)c(-c2ccccc2)c(-c2ccc(F)cc2)n1CC[C@@H](O)C[C@@H](O)CC(=O)O [atorvastatin],Inhibition rate compared to the model %,[1]; [4],18.76%
same,Plaque area %,[1]; [4],32.99%*
same,Inhibition rate compared to the model %,[1]; [5],28.47%
same,Plaque area %,[1]; [5],29.05%*
COC(=O)[C@H](c1ccccc1Cl)N1CCc2sccc2C1 [clopidogrel],Inhibition rate compared to the model %,[1]; [6],32.76%
same,Plaque area %,[1]; [6],30.35%*
COc1cc2c(c(OC)c1OC)-c1ccc(OC)c(=O)cc1[C@@H](NC(C)=O)CC2 [colchicine],Inhibition rate compared to the model %,[1]; [7],25.12%
same,Plaque area %,[1]; [7],33.80%*
CC(C)(Sc1cc(C(C)(C)C)c(O)c(C(C)(C)C)c1)Sc1cc(C(C)(C)C)c(O)c(C(C)(C)C)c1 [probucol],Inhibition rate compared to the model %,[1]; [8],21.91%
same,Plaque area %,[1]; [8],35.25%*
"CC(C)c1nc(N(C)S(C)(=O)=O)nc(-c2ccc(F)cc2)c1/C=C/[C@@H](O)C[C@@H](O)CC(=O)O [rosuvastain, rosuvastatin]",Inhibition rate compared to the model %,"[2]; Table 1, prevention",36.61%
same,Plaque area %,"[2]; Table 1, prevention",20.93%**
same,Inhibition rate compared to the model %,"[2]; Table 3, prevention",30.61%
same,Plaque area %,"[2]; Table 3, prevention",24.82%
same,Inhibition rate compared to the model %,[1]; [9],38.69%
same,Plaque area %,[1]; [9],26.10%*
same,Inhibition rate compared to the model %,[1]; [10],34.77%
same,Plaque area %,[1]; [10],25.87%**
same,Inhibition rate compared to the model %,[1]; [11],16.97%
same,Plaque area %,[1]; [11],33.72%*
same,Inhibition rate compared to the model %,[1]; [4],31.40%
same,Plaque area %,[1]; [4],27.86%*
same,Inhibition rate compared to the model %,[1]; [12],34.77%
same,Plaque area %,[1]; [12],25.87%**
same,Inhibition rate compared to the model %,[1]; [13],38.69%
same,Plaque area %,[1]; [13],26.10%*
same,Inhibition rate compared to the model %,[1]; [14],42.69%
same,Plaque area %,[1]; [14],27.94%**
